From ChEMBL document CHEMBL4406910, “Scaffold Morphing Identifies 3-Pyridyl Azetidine Ureas as Inhibitors of Nicotinamide Phosphoribosyltransferase (NAMPT)” (ACS Med Chem Lett, 2019)
≈ marks a conversion by molar mass, not a printed value.

Assay: AUC (0 to 7 hrs) in athymic nude mouse at 10 mg/kg, po measured for 0.5 to 24 hrs by LC-MS/MS analysis
Type: ADME, organism-based
Parameters: time < 7 hr, dose 10 mg/kg, route oral
Settings: in vivo
`CCOc1nc2ccccc2n1Cc1ccc(NC(=O)N2CC(c3cccnc3)C2)cc1` gave an AUC(0-t) at 7 h of 67.4 µM·h.

Assay: Cmax in athymic nude mouse at 10 mg/kg, po measured for 0.5 to 24 hrs by LC-MS/MS analysis
Type: ADME, organism-based
Parameters: dose 10 mg/kg, route oral
Settings: in vivo
Compound `CCOc1nc2ccccc2n1Cc1ccc(NC(=O)N2CC(c3cccnc3)C2)cc1` has a Cmax of 29.1 µM.

Assay: Solubility of compound in pH 6.8 PBS incubated for 16 to 24 hrs under shaking condition by LC-MS/MS analysis
Type: physicochemical
Settings: not given
Work on `C[C@H](NC(=O)c1cccc(F)c1)c1ccc(NC(=O)N2CC(c3cncc(N)c3)C2)cc1` yielded a solubility thermodynamic of 17 µM (≈ 7.37 µg/mL). Compound `C[C@H](NC(=O)c1cccc(F)c1)c1ccc(NC(=O)N2CC(c3ccc(N)nc3)C2)cc1` has a solubility thermodynamic of 32 µM (≈ 13.9 µg/mL). With `C[C@@H](c1ccc(NC(=O)N2CC(c3cccnc3)C2)cc1)N1Cc2ccccc2C1=O` the solubility thermodynamic was 130 µM (≈ 53.6 µg/mL). Work on `C[C@H](NC(=O)[C@@H]1CCCN1C)c1ccc(NC(=O)N2CC(c3ccc(N)nc3)C2)cc1` yielded a solubility thermodynamic of 760 µM (≈ 321 µg/mL). Compound `C[C@H](NC(=O)c1ncccn1)c1ccc(NC(=O)N2CC(c3cccnc3)C2)cc1` has a solubility thermodynamic of 930 µM (≈ 374 µg/mL). For `C[C@H](NC(=O)C1CCOCC1)c1ccc(NC(=O)N2CC(c3cccnc3)C2)cc1`, the solubility thermodynamic was 380 µM (≈ 155 µg/mL). In the case of `C[C@H](NC(=O)[C@@H]1CCCN1C)c1ccc(NC(=O)N2CC(c3cncc(N)c3)C2)cc1`, the solubility thermodynamic is reported as 820 µM (≈ 346 µg/mL). For `C[C@H](NC(=O)C1CCOCC1)c1ccc(NC(=O)N2CC(c3cncc(N)c3)C2)cc1`, the solubility thermodynamic was 440 µM (≈ 186 µg/mL). In the case of `C[C@@H](c1ccc(NC(=O)N2CC(c3ccc(N)nc3)C2)cc1)N1Cc2ccccc2C1=O`, the solubility thermodynamic is reported as 220 µM (≈ 94.1 µg/mL). With `C[C@@H](c1ccc(NC(=O)N2CC(c3cncc(N)c3)C2)cc1)N1Cc2ccccc2C1=O` the solubility thermodynamic was 35 µM (≈ 15 µg/mL). With `C[C@H](NC(=O)c1ncccn1)c1ccc(NC(=O)N2CC(c3cncc(N)c3)C2)cc1` the solubility thermodynamic was 300 µM (≈ 125 µg/mL). Compound `C[C@H](NC(=O)c1cccc(F)c1)c1ccc(NC(=O)N2CC(c3cccnc3)C2)cc1` has a solubility thermodynamic of 11 µM (≈ 4.6 µg/mL). For `C[C@H](NC(=O)C1CCOCC1)c1ccc(NC(=O)N2CC(c3ccc(N)nc3)C2)cc1`, the solubility thermodynamic was 310 µM (≈ 131 µg/mL). Work on `CCC(=O)N[C@@H](C)c1ccc(NC(=O)N2CC(c3cccnc3)C2)cc1` yielded a solubility thermodynamic of 700 µM (≈ 247 µg/mL). In the case of `C[C@H](NC(=O)[C@@H]1CCCN1C)c1ccc(NC(=O)N2CC(c3cccnc3)C2)cc1`, the solubility thermodynamic is reported as over 1000 µM. Compound `CCC(=O)N[C@@H](C)c1ccc(NC(=O)N2CC(c3ccc(N)nc3)C2)cc1` has a solubility thermodynamic of 760 µM (≈ 279 µg/mL). With `CCC(=O)N[C@@H](C)c1ccc(NC(=O)N2CC(c3cncc(N)c3)C2)cc1` the solubility thermodynamic was 230 µM (≈ 84.5 µg/mL). `C[C@H](NC(=O)c1ncccn1)c1ccc(NC(=O)N2CC(c3ccc(N)nc3)C2)cc1` showed a solubility thermodynamic of 300 µM (≈ 125 µg/mL).
